Assay results taken from the SangsterLogP compilation.

experiment: method code SF, from DOI: 10.1016/0223-5234(90)90141-o; conditions: pH 7.4

Going from COc1cc(S(C)=O)ccc1-c1nc2cnncc2[nH]1 (stereo unspecified) to COc1cc(S(C)=O)ccc1-c1nc2cnccc2[nH]1 (stereo unspecified), the logD rises from 0.39 to 1.23.

First: COc1cc(S(C)=O)ccc1-c1nc2ncncc2[nH]1 (stereo unspecified)
Second: COc1cc(S(C)=O)ccc1-c1nc2nnccc2[nH]1 (stereo unspecified)
The logD of the first is higher: 0.53 for the first, 0.23 for the second.

COc1ccc(-c2nc3ccncc3n2C)c(OC)c1 and COc1ccc(-c2nc3cnccc3n2C)c(OC)c1 are within 0.2 log units of each other in logD: 2.68 for the first, 2.66 for the second.

COc1cc(S(C)=O)ccc1-c1nc2cnccc2n1C (stereo unspecified) and COc1cc(S(C)=O)ccc1-c1nc2cnccc2s1 (stereo unspecified) are within 0.2 log units of each other in logD: 2.15 for the first, 2.21 for the second.

Compared with COc1ccc(-c2nc3cnccc3o2)c(OC)c1, COc1cccc(OC)c1-c1nc2cnccc2[nH]1 is lower in logD: 2.42 for the first, 1.66 for the second.

Work on COc1cc(S(C)=O)ccc1-c1nc2nccnc2[nH]1 (stereo unspecified) yielded a logD of 0.66.
